Assay results as given in patent US11970458B1, “4,5-bis(4-bromophenyl)-1-hexyl-2-(4-nitrophenyl)-1H-imidazole as an antimicrobial compound” (KING FAISAL UNIVERSITY, priority 2023, dated 2024).

What was measured:
[1] = tested on: Pseudomonas aeruginosa; assay: antimicrobial screening by agar dilution; type: cell-based; settings: after 10, 20, 40 and 60 minutes at all dilutions 1:100, 1:200, 1:400, 1:800
Description: (§1) The antimicrobial properties of the 4,5-bis(4-bromophenyl)-1-hexyl-2-(4-nitrophenyl)-1H-imidazole was studied by the method of agar dilution. Test solutions of each compound was prepared in concentration of 1% using dimethylformamide as a solvent then they were diluted in physiological solution to obtain the final experimental dilutions 1:100, 1:200, 1:400, 1:800. The effect of these substances were compared with furacillin in a controlled study. The testing microbes used were gram positive bacteria Staphylococcus aureus, gram negative bacteria Pseudomonas aeruginosa and Escherichia coli and Candida albicans fungi were taken. The experiments used for this survey were meat-pentonlu agar (EPA) for cultivation of bacteria and Saburo environment for fungi. Each experiment used 1 ml of test solution on each plate 500 min. Add 2 drops of emulsified with microbes feel. All experimental samples were taken from the agar after 10, 20, 40, 60 minutes in the environment on the basis of Patrk planted. Bacteria were cultivated at a temperature of 37° C. for 1 day and the mushroom was kept in a thermostat for […] at a temperature of 28° C. Then results were checked.

[2] = tested on: Staphylococcus aureus; assay: antimicrobial screening by agar dilution; type: cell-based; settings: after 10, 20, 40 and 60 minutes at all dilutions 1:100, 1:200, 1:400, 1:800
Description: as §1

[3] = tested on: Candida albicans; assay: antimicrobial screening by agar dilution; type: cell-based; settings: after 10, 20, 40 and 60 minutes at all dilutions 1:100, 1:200, 1:400, 1:800
Description: as §1

[4] = tested on: Escherichia coli; assay: antimicrobial screening by agar dilution; type: cell-based; settings: after 10, 20, 40 and 60 minutes at all dilutions 1:100, 1:200, 1:400, 1:800
Description: as §1

## CCCCCCn1c(-c2ccc([N+](=O)[O-])cc2)nc(-c2ccc(Br)cc2)c1-c1ccc(Br)cc1 [4,5-bis(4-bromophenyl)-1-hexyl-2-(4-nitrophenyl)-1H-imidazole]
[1]
  inhibition activity: highest inhibition activity
[2]
  inhibition activity: highest inhibition activity
[3]
  inhibition activity: highest inhibition activity
[4]
  inhibition activity: highest inhibition activity
other
  melting point: 160 to 161 °C
